In the supplement of paper PMC10307832:

Legend:
Experiment in all cases: relative viability (nuclei count vs DMSO), 5 days (fraction); higher = more cells survive
RU-SKI 43 + Luminespib = compound: CC[C@@H](C)CNCC(=O)N1CCC2=C([C@@H]1COC3=CC=CC(=C3)C)C=CS2 [RU-SKI 43] + CCNC(=O)c1noc(-c2cc(C(C)C)c(O)cc2O)c1-c1ccc(CN2CCOCC2)cc1 [Luminespib] (partner 0.01 µM)
How it was run: (§1)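 Values are medians from duplicate plates. Each reflects relative viability, defined as the nuclei count of treated wells over that of vehicle wells. Lung cancer cell lines in 1536-well plates were pin-tool dosed one day after seeding with one drug alone or with a fixed anchor-drug dose plus five library-drug doses (not always all listed) in √10 steps, then fixed, stained and imaged at 4× after 5 days.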

Irinotecan + Decitabine = compound: CCc1c2c(nc3ccc(OC(=O)N4CCC(N5CCCCC5)CC4)cc13)-c1cc3c(c(=O)n1C2)COC(=O)[C@]3(O)CC [Irinotecan] + Nc1ncn([C@H]2C[C@H](O)[C@@H](CO)O2)c(=O)n1 [Decitabine] (partner 2 µM)
How it was run: as §1

Irinotecan + Vorinostat = compound: CCc1c2c(nc3ccc(OC(=O)N4CCC(N5CCCCC5)CC4)cc13)-c1cc3c(c(=O)n1C2)COC(=O)[C@]3(O)CC [Irinotecan] + O=C(CCCCCCC(=O)Nc1ccccc1)NO [Vorinostat] (partner 1 µM)
How it was run: as §1

MK-8033 + Bortezomib = compound: Cn1cc(-c2cnc3ccc4ccc(CS(=O)(=O)NCc5ccccn5)cc4c(=O)c3c2)cn1 [MK-8033] + CC(C)C[C@H](NC(=O)[C@H](Cc1ccccc1)NC(=O)c1cnccn1)B(O)O [Bortezomib] (partner 0.002 µM)
How it was run: as §1

Cell Line | relative viability (RU-SKI 43 + Luminespib; first compound 0.1 µM) | relative viability (RU-SKI 43 + Luminespib; first compound 0.3162 µM) | relative viability (RU-SKI 43 + Luminespib; first compound 1 µM) | relative viability (RU-SKI 43 + Luminespib; first compound 3.162 µM) | relative viability (RU-SKI 43 + Luminespib; first compound 10 µM) | relative viability (Irinotecan + Decitabine; first compound 0.6325 µM) | relative viability (Irinotecan + Decitabine; first compound 2 µM) | relative viability (Irinotecan + Decitabine; first compound 6.325 µM) | relative viability (Irinotecan + Decitabine; first compound 20 µM) | relative viability (Irinotecan + Vorinostat; first compound 0.6325 µM) | relative viability (Irinotecan + Vorinostat; first compound 2 µM) | relative viability (Irinotecan + Vorinostat; first compound 6.325 µM) | relative viability (Irinotecan + Vorinostat; first compound 20 µM) | relative viability (MK-8033 + Bortezomib; first compound 0.02 µM) | relative viability (MK-8033 + Bortezomib; first compound 0.06325 µM) | relative viability (MK-8033 + Bortezomib; first compound 0.2 µM) | relative viability (MK-8033 + Bortezomib; first compound 0.6325 µM) | relative viability (MK-8033 + Bortezomib; first compound 2 µM)
HOP-62 | 1 | 1.29 | 1.07 | 0.984 | 1.04 | 0.22 | 0.198 | 0.187 | 0.212 | 0.234 | 0.311 | 0.167 | 0.188 | 0.932 | 0.85 | 0.333 | 0.555 | 0.897
IA-LM | – | – | – | – | – | – | – | – | – | – | 0.619 | 0.251 | 0.0877 | 0.791 | 0.746 | 0.83 | 0.782 | 0.802
LC-2-ad | 0.987 | 1.1 | 1 | 1.04 | 0.956 | 0.532 | 0.355 | 0.338 | 0.262 | 0.312 | 0.373 | 0.283 | 0.181 | 1.12 | 0.996 | 0.885 | 0.996 | 0.933
LCLC-97TM1 | 0.902 | 0.927 | 0.876 | 0.898 | 0.85 | 0.135 | 0.107 | 0.105 | 0.115 | 0.104 | 0.248 | 0.114 | 0.129 | 1.14 | 0.616 | 0.597 | 0.654 | 0.499
LCLC-103H | 0.934 | 1.16 | 1.1 | 1.1 | 0.971 | 0.63 | 0.524 | 0.458 | 0.432 | 0.449 | 0.554 | 0.623 | 0.563 | 1.04 | 0.986 | 1.18 | 1.02 | 1.12
LK-2 | 0.182 | 0.168 | 0.171 | 0.189 | 0.177 | 0.285 | 0.379 | 0.226 | 0.216 | 0.363 | 0.264 | 0.256 | 0.242 | – | – | – | – | –
LOU-NH91 | 0.307 | 0.304 | 0.431 | 0.36 | 0.317 | 0.79 | 0.768 | 0.492 | 0.311 | 0.837 | 0.875 | 0.315 | 0.147 | 0.455 | 0.559 | 0.511 | 0.554 | 0.495
LU99A | 0.195 | 0.24 | 0.211 | 0.259 | 0.192 | 0.196 | 0.184 | 0.157 | 0.169 | 0.305 | 0.169 | 0.124 | 0.127 | 1.32 | 1.09 | 1.09 | 1.13 | 1.12
NCI-H358 | 0.59 | 0.292 | 0.252 | 0.389 | 0.307 | 0.183 | 0.193 | 0.154 | 0.0968 | 0.455 | 0.246 | 0.167 | 0.135 | – | – | – | – | –
NCI-H522 | 1.28 | 1.14 | 1.14 | 1.05 | 1.17 | 0.605 | 0.492 | 0.577 | 0.636 | 0.734 | 0.727 | 0.59 | 0.65 | – | – | – | – | –
NCI-H1299 | – | – | – | – | – | – | – | – | – | – | – | – | – | 1.03 | 0.997 | 1.03 | 1.05 | 1
NCI-H1395 | 0.733 | 0.899 | 0.862 | 0.649 | 0.635 | – | 0.722 | 0.522 | 0.301 | – | 0.714 | 0.522 | 0.268 | – | – | – | – | –
NCI-H1563 | 0.51 | 0.502 | 0.51 | 0.529 | 0.495 | – | – | – | – | – | – | – | – | 0.951 | 0.823 | 0.857 | 0.833 | 0.838
NCI-H1623 | 0.452 | 0.478 | 0.468 | 0.577 | 0.447 | – | – | – | – | – | – | – | – | – | – | – | – | –
NCI-H1648 | – | – | – | – | – | 0.501 | 0.469 | 0.446 | 0.428 | 0.379 | 0.423 | 0.355 | 0.279 | – | – | – | – | –
NCI-H1703 | – | – | – | – | – | – | – | – | – | – | – | – | – | 0.401 | 0.302 | 0.268 | 0.307 | 0.298
NCI-H1792 | 0.462 | 0.568 | 0.447 | 0.492 | 0.456 | 0.405 | 0.522 | 0.287 | 0.228 | – | – | – | – | 1 | 0.96 | 0.966 | 0.525 | 0.954
NCI-H1793 | 0.167 | 0.154 | 0.205 | 0.154 | 0.183 | – | 0.315 | 0.262 | 0.258 | – | 0.633 | 0.372 | 0.244 | – | – | – | – | –
NCI-H1944 | 0.643 | 0.751 | 0.832 | 0.819 | 0.662 | 0.323 | 0.206 | 0.149 | 0.151 | 0.386 | 0.36 | 0.223 | 0.166 | – | – | – | – | –
NCI-H2170 | 0.751 | 0.73 | 0.73 | 0.755 | 0.67 | 0.396 | 0.222 | 0.128 | 0.122 | 0.864 | 0.753 | 0.327 | 0.102 | – | – | – | – | –
NCI-H2228 | 0.178 | 0.15 | 0.177 | 0.149 | 0.199 | – | – | – | – | 0.567 | 0.592 | 0.435 | 0.433 | 1.04 | 0.932 | 1.08 | 0.998 | 1.06
NCI-H2342 | 0.686 | 0.667 | 0.713 | 0.62 | 0.617 | 0.732 | 0.789 | 0.68 | 0.436 | 0.955 | 0.911 | 0.836 | 0.356 | – | – | – | – | –
SK-MES-1 | 0.761 | 0.854 | 0.818 | 0.929 | 0.75 | 0.398 | 0.483 | 0.282 | 0.143 | 0.821 | 0.756 | 0.372 | 0.193 | – | – | – | – | –
SW 900 | 0.196 | 0.188 | 0.195 | 0.169 | 0.151 | – | 0.4 | 0.354 | 0.367 | – | 0.564 | 0.333 | 0.373 | – | – | – | – | –
